Values quoted from earlier work as cited in patent US11865215B2, “Tablet compositions comprising abiraterone acetate” (SYNTHON B.V., priority 2018, dated 2024).

Assays:
[1] = not given; remark: listed apart in the source

| Structure (SMILES) | BCS System class (compound of low solubility and low permeability) | effect of taking the tablet with food on absorption ([1]; with food) | solubility in water | time to reach maximum plasma concentration of abiraterone ([1]; oral administration in the fasting state) |
| --- | --- | --- | --- | --- |
| CC(=O)O[C@H]1CC[C@@]2(C)C(=CC[C@@H]3[C@@H]2CC[C@]2(C)C(c4cccnc4)=CC[C@@H]32)C1 [Abiraterone acetate, 3β-acetoxy-17-(3-pyridyl)androsta-5,16-diene] | Class IV | significantly and undesirably increases the absorption | – | – |
| C[C@]12CC[C@H](O)CC1=CC[C@@H]1[C@@H]2CC[C@]2(C)C(c3cccnc3)=CC[C@@H]12 [Abiraterone] | – | – | less than 0.1 mg/ml | approx. 2 hours |
